# Measurements published in publication PMC7231190, “The Medium-Chain Fatty Acid Receptor GPR84 Mediates Myeloid Cell Infiltration Promoting Steatohepatitis and Fibrosis” (Journal of Clinical Medicine, 2020).
# Where a name gives a salt, the structure may show the parent alone.
# Columns and labels:
# patients with NASH = test system: patients with NASH; design: method as in PMID 28833331, PMID 31943293; conditions: early data from a clinical trial in patients with NASH; cited from earlier work
# [1] = test system: lung fibrosis mouse models; design: method as in earlier work; conditions: two mouse models, therapeutic setting; cited from earlier work
# [2] = test system: experimental kidney as well as liver fibrosis; design: method as in PMID 29454750, PMID 30093459; conditions: cited from earlier work
# [3] = test system: C57BL6/J wildtype mice, acute CCl4 liver injury; assay: CCl4-induced acute liver injury in mice; assay type: in vivo, mouse; conditions: 36 h after single IP CCl4
# [4] = test system: C57BL6/J wildtype mice, chronic CCl4; assay: CCl4-induced chronic liver injury / fibrosis in mice; assay type: in vivo, mouse; conditions: CCl4 IP twice per week 8 weeks, treatment last 4 weeks; CpdA 30 mg/kg q.d., selonsertib 15 mg/kg b.i.d.
# [5] = test system: C57BL6/J wildtype mice, MCD diet; assay: MCD diet-induced steatohepatitis and fibrosis in mice; assay type: in vivo, mouse; conditions: MCD diet 8 weeks, treatment last 4 weeks; GPR84 antagonists 30 mg/kg PO q.d., selonsertib 15 mg/kg PO b.i.d.
# mGPR84 = biological target: T1, mGPR84 (Mus musculus, UniProt Q8CIM5); assay: cAMP HTRF assay, CHO-K1-mGPR84 cell membrane; assay type: biochemical
# T1 construct: expressed in transfected cells; host or cells: CHO-K1
# T1 sequence (Q8CIM5 whole entry): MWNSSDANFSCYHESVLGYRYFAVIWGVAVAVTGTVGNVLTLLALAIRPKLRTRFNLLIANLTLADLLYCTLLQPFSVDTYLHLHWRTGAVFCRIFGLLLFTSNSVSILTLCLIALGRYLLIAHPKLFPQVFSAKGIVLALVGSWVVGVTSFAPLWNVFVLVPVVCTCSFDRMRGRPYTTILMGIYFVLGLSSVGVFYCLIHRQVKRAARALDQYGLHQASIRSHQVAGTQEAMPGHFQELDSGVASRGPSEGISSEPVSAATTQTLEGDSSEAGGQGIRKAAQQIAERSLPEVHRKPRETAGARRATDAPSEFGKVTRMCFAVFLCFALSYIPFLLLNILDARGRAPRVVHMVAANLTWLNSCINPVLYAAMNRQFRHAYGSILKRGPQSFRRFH
# human neutrophils = assay: Human neutrophil chemotaxis towards GPR84 agonists; assay type: cell-based; conditions: embelin 5 µM
# [6] = test system: neutrophils from mouse bone marrow; assay: Transwell chemotaxis of murine bone-marrow neutrophils; assay type: cell-based; conditions: 3-µM embelin, 2 h
# Procedure: (§1) Bone marrow of the untreated WT mice at 8 weeks of age was used to isolate the immune cells for transwell migration assays. A single cell suspension was achieved by flushing cold RPMI-1640 through the bones, and grinding the received bone marrow through a 70-µm cell strainer. After lysis of red blood cells by Pharmlyse (BD Biosciences, San Jose, CA, USA), 1 × 10^6 cells in RPMI-1640 were placed in the upper compartment of the 5-µm transwell migration chamber. Migration was analyzed towards stimulation with a 3-µM embelin, a surrogate GPR84 agonist, or a 100-µM myristic acid (an MCFA) dissolved in combination with bovine serum albumin (BSA) in the lower compartment. The chemotactic cytokines, 5 nM CCL2 or 1 nM CXCL1, were used as positive controls for monocyte or neutrophil migration, respectively. After 2 h of incubation at 37 °C, the cells in the lower compartment were analyzed by flow cytometry.
# [7] = test system: CD115+ monocytes from mouse bone marrow; assay: Transwell chemotaxis of murine bone-marrow monocytes; assay type: cell-based; conditions: 3-µM embelin, 2 h
# Procedure: as §1
# [8] = GPR84 antagonists 30 mg/kg PO, selonsertib 15 mg/kg PO
smiles,measurement,setting,value
CCCCOCCOc1ccc(-c2ccc3c(c2)/C=C(/C(=O)Nc2ccc([S@@+]([O-])Cc4cncn4CCC)cc2)CCCN3CC(C)C)cc1 [cenicriviroc],antifibrotic activity,patients with NASH,effective antifibrotic activity
O=c1nc(OC[C@@H]2COCCO2)cc2n1CCc1cc(C#CC3CC3)ccc1-2 [GLPG1205],lung fibrosis,[1],reduced lung fibrosis
"CCCCCc1cccc(CC(=O)O)c1 [PBI-4050, 3-pentylbenzeneacetic acid sodium salt]",experimental kidney and liver fibrosis,[2],reduced experimental kidney as well as liver fibrosis
Cc1cc(F)c(C(=O)Nc2cccc(-c3nncn3C(C)C)n2)cc1-n1cnc(C2CC2)c1 [selonsertib],"extent of acute liver injury (necrotic areas on histology, serum ALT)","[3]; GPR84 antagonists 30 mg/kg PO at 0 h, 24 h, selonsertib 15 mg/kg PO at 0, 12, 24 h",neither significantly modified
same,MoMF infiltration (flow cytometry),[3]; [8],"but not selonsertib, significantly reduced"
same,hepatic macrophage accumulation (F4/80 immunohistochemistry),[3]; [8],neither significantly modified
same,hepatic neutrophil infiltration (flow cytometry),[3]; [8],"but not selonsertib, significantly reduced"
same,liver fibrosis (Sirius-Red-staining and hepatic hydroxyproline content),[4],markedly reduced
same,neutrophils and liver lymphocytes,[4],largely unaltered
same,"numbers of hepatic macrophages, particularly MoMF",[4],lower numbers
same,toxic injury according to histology or ALT levels,[4],unaffected
same,liver fibrosis (Sirius-Red-stained liver sections and hepatic hydroxyproline content),[5],reduced
CCCCCCCCCC(=O)O [Capric acid],EC80 of agonist in cAMP HTRF assay,mGPR84,"cAMP HTRF assay (IC50 nM) CHO-K1-mGPR84 cell membrane, Capric acid (EC80 = 61.7 µM)"
CCCCCCCCCCCC1=C(O)C(=O)C=C(O)C1=O [embelin],induction of human neutrophil migration by agonist,human neutrophils,strongly induced
same,attraction of mouse neutrophils by agonist,[6],attracted
same,stimulation of mouse monocyte migration by agonist,[7],stimulated
